# PubChem BioAssay (NCI)
# Values joined by “and” are separate entries in the source; they are usually repeats but may differ in a detail not shown here. Identical values can stand only once.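 A five-concentration, 48-hour dose response in 96-well plates underlies each endpoint, interpolated linearly between surrounding concentrations. Here, GI50 denotes the concentration required for 50% inhibition of growth. Definition used: TGI = concentration required for complete inhibition of growth.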
# Assays:
# Experiment in all cases: NCI anticancer screen, dose series, 48 h
# CAKI-1 renal = system: CAKI-1 renal
# HCT-116 colon = system: HCT-116 colon
# HL-60(TB) leukemia = system: HL-60(TB) leukemia
# HS 578T breast = system: HS 578T breast
# MDA-MB-435 = system: MDA-MB-435
# MOLT-4 leukemia = system: MOLT-4 leukemia
# NCI-H460 lung = system: NCI-H460 lung
# PC-3 prostate = system: PC-3 prostate
# SW-620 colon = system: SW-620 colon
# RPMI-8226 leukemia = system: RPMI-8226 leukemia
SMILES,TGI (CAKI-1 renal) [µM],TGI (HCT-116 colon),TGI (HL-60(TB) leukemia) [µM],TGI (HS 578T breast) [µM],TGI (MDA-MB-435) [µM],TGI (MOLT-4 leukemia) [µM],TGI (NCI-H460 lung) [µM],TGI (PC-3 prostate),TGI (SW-620 colon) [µM],TGI (RPMI-8226 leukemia) [µM],GI50 (CAKI-1 renal) [µM],GI50 (HCT-116 colon) [µM],GI50 (HS 578T breast) [µM],GI50 (MDA-MB-435) [µM],GI50 (MOLT-4 leukemia) [µM],GI50 (NCI-H460 lung) [µM],GI50 (PC-3 prostate) [µM],GI50 (RPMI-8226 leukemia) [µM],GI50 (SW-620 colon) [µM],GI50 (HL-60(TB) leukemia) [µM]
CC#CC#C/C(=C/C=CC(=O)OC)SC,> 100,> 100 µM,> 100,> 100,> 100,> 100,> 100,> 100 µM,> 100,–,–,–,–,–,–,–,–,–,–,–
N#Cc1cccc(C2C(=O)c3ccc(C(=O)c4ccc5c(c4)C(=O)N(c4ccc(Oc6ccc(N7C(=O)c8ccc(C(=O)c9ccc%10c(c9)C(=O)N(c9cccc(C#N)c9)C%10=O)cc8C7=O)cc6)cc4)C5=O)cc3C2=O)c1 (stereo not drawn),–,> 100 µM,> 100,–,–,> 100,> 100,–,> 100,> 100,–,–,–,–,–,–,–,–,–,–
COc1ccc([C@@H]2OC(=O)C3C2C(=O)O[C@H]3c2ccc(OC)cc2)cc1 (stereo partly drawn),> 100,> 100 µM,> 100,–,–,> 100,> 100,–,> 100,> 100,–,–,–,–,–,–,–,–,–,–
COc1ccc(/C=C/C(=O)/C=C(O)/C=C/c2ccc(OC)c(OC)c2)cc1OC,23,5.96 µM,–,> 100,> 100,> 100,> 100,> 100 µM,> 100,6.85,3.55,1.83,3.68,3.32,5.38,4.6,2.88,0.559,1.85,–
CCCCCCCCCC[C@H](O)[C@H]1CC[C@@H]([C@@H](O)CC[C@H](O)[C@@H]2CCC(CCCCCCC[C@@H](O)CC3=C[C@H](C)OC3=O)O2)O1 (stereo partly drawn),23.8,2.65 µM and 20.7 µM,4.95,4.86,–,–,17.2,3.44 µM and 17.2 µM,–,4.03,5.26,0.507,–,5.07,–,1.15,4.66,–,4.8,–
CSC1=Nc2ccccc2N=C(c2ccccc2)C1,> 100,45.6 µM,34.9,–,–,> 100,46.8,–,32.6,–,–,–,–,–,–,–,–,–,–,–
Nc1n[nH]c2ccc([C@@H]3Nc4ccc5cn[nH]c5c4[C@H]4C5CCC(C5)[C@@H]34)cc12 (stereo partly drawn),> 48.8,> 100 µM,–,> 100,–,> 100,> 100,> 100 µM,> 100,11.1,0.347,0.442,0.389,–,0.446,0.382,0.476,0.346,0.401,0.326
CN(C)CCCCNc1ccc(NCCCCN(C)C)c2c1C(=O)c1c(O)ccc(O)c1C2=O,21.6,2.83 µM,4.12,–,26.1,–,2.94,3.64 µM,2.83,6.49,8.15,1.51,–,13.3,–,1.59,1.94,2.54,1.51,1.73
CC1=C(C(=O)Nc2ccc(C)cc2)C(c2cccc([N+](=O)[O-])c2)C(C(=O)Nc2ccc(C)cc2)=C(C)N1,> 100,> 100 µM,39.4,–,–,38.5,60.8,–,> 100,–,–,–,–,–,–,–,–,–,–,–
